Holding throughout (type): cell-based
The target of assay [1] is T1, GLUT4 (Homo sapiens, UniProt P14672).
T1 construct: expressed in transfected cells; host or cells: HEK293 stably expressing GLUT1 shRNA
T1 sequence (P14672 1-509): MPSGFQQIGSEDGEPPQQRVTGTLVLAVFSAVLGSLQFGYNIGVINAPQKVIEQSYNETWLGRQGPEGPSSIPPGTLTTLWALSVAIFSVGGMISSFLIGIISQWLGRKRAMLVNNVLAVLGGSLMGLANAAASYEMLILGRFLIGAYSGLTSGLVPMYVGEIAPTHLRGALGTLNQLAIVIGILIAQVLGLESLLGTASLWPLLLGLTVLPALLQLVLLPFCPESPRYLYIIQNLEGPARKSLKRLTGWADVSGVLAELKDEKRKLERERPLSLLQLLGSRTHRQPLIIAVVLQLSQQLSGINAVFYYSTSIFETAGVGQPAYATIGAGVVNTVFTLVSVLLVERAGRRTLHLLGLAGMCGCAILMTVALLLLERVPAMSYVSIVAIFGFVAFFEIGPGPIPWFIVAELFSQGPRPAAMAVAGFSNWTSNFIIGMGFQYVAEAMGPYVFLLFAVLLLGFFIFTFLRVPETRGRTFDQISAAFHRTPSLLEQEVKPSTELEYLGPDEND
The experiment in a line: 2-DOG transport in HEK293 cells over-expressing GLUT4. To be noted: pre-treated 5 minutes, 2-DOG uptake 4 min; cells lacking GLUT1; read-out: IC50 (inhibition of 2-DOG transport in HEK cells over-expressing GLUT isoforms) GLUT4. The method, then:
(§1) Tissue culture plates were pretreated with 25 μg/ml polyethyleneimine (Fluka, catalogue number P3143) in 150 mM NaCl for 20min to let cells adhere. JNN3 cells were subsequently plated and grown to 40-60% confluency in complete RPMI 1640 medium. HEK293 GLUT overexpressing cells were plated at 400,000 cells/ml overnight. Cells were then washed with glucose-free HEPES buffer twice and starved for 30 min. The uptake of 2-[^3H] deoxy-D-glucose (2-DOG) (50 μM) was measured in glucose-free HEPES buffer for 4-6 min at 37° C. Compound 20 (20 μM) was added 5-6 min prior to the addition of glucose depending on the specific assay. For the HEK293 GLUT overexpressing cells, non-specific uptake was measured in non-transfected HEK293 cells containing the shRNA GLUT1 knockdown and was subtracted from the experimental values. Data are plotted as percent uptake relative to unexposed HEK293 cultures. Data were normalized to fit by nonlinear regression analysis using GraphPad Prism software.
(§2) Compound 20 was further screened for GLUT4 selectivity by evaluating inhibition of glucose transport in HEK 293 cells exogenously over-expressing human GLUTs-1, -2, -3, -4, or -8 that also stably express GLUT1 shRNA (except the GLUT1 overexpressing cell line) to knock down endogenous GLUT1.
(§3) Glucose transport in HEK293 cells over-expressing GLUT1 or over-expressing GLUT4 or GLUT8 in cells lacking GLUT1 were used to evaluate inhibition of glucose transport. Cells were pre-treated with compound for 5 minutes followed by evaluation of […] uptake for 4 min at […]. Non-specific uptake was measured in nontransfected HEK293 cells containing the shRNA GLUT1 knockdown and was subtracted from the experimental values.

For assay [2], the target named is T2, GLUT8 (Homo sapiens, UniProt Q9NY64).
T2 construct: expressed in transfected cells; host or cells: HEK293 stably expressing GLUT1 shRNA
T2 sequence (Q9NY64 1-477): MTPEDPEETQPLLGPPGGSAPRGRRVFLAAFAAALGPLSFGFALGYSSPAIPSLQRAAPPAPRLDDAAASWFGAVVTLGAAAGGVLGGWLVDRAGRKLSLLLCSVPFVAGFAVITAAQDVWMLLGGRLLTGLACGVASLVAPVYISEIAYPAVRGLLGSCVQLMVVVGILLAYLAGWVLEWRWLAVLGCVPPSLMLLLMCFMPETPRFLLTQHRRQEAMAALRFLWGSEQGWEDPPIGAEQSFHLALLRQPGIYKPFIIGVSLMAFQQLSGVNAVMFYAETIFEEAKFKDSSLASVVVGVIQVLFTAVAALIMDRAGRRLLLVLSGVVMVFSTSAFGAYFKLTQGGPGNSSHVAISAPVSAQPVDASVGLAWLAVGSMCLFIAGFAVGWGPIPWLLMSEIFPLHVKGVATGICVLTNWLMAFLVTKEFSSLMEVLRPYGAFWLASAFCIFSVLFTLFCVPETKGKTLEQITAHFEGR
The experiment in a line: 2-DOG transport in HEK293 cells over-expressing GLUT8. To be noted: pre-treated 5 minutes, 2-DOG uptake 4 min; cells lacking GLUT1; read-out: IC50 (inhibition of 2-DOG transport in HEK cells over-expressing GLUT isoforms) GLUT8. The method, then: as §1, §2, §3

Assay [3] addresses T3, GLUT1 (Homo sapiens, UniProt P11166).
T3 construct: expressed in transfected cells; host or cells: HEK293
T3 sequence (P11166 1-492): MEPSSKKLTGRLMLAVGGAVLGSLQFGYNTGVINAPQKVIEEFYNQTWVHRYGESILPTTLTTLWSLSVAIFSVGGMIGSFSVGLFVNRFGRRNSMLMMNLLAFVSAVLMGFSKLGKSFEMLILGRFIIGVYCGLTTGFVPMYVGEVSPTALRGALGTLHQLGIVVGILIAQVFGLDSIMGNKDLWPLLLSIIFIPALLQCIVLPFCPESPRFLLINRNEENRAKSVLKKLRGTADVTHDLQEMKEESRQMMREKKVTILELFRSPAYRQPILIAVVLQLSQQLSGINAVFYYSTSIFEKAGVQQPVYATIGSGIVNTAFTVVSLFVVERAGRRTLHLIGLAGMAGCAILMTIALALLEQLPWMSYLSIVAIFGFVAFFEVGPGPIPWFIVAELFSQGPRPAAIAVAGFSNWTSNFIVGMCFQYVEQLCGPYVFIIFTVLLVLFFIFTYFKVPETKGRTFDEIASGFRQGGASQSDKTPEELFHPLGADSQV
Put plainly: 2-DOG transport in HEK293 cells over-expressing GLUT1. The note with it: pre-treated 5 minutes, 2-DOG uptake 4 min; read-out: IC50 (inhibition of 2-DOG transport in HEK cells over-expressing GLUT isoforms) GLUT1. The method, then: as §1, with “software. […]” for “software.”
Glucose transport in HEK293 cells over-expressing GLUT1 or over-expressing GLUT4 or GLUT8 in cells lacking GLUT1 were used to evaluate inhibition of glucose transport. […] Non-specific uptake was measured in nontransfected HEK293 cells containing the shRNA GLUT1 knockdown and was subtracted from the experimental values.

Assay [4] deals with KMS11-GLUT1 cells. Put plainly: Proliferation of KMS11-GLUT1 myeloma cells (Cell Titre Glo). To be noted: inhibition of proliferation, 72 hours. The method, then: (§4) IC50 studies were performed using the CellTiter-Glo assay (Promega, Madison, Wis.). 20,000 cells in 100 ul complete RPMI 1640 medium were plated per well in 96-well plates, with a concentration range of individual compounds. After 72 h incubation, 100 uL Glo reagent were added to each well and luminescence was measured using a Biotek Synergy 4 multimode plate reader. Cell number was assessed by trypan blue standing and an automatic cell counter (Biorad). For cell viability assays 0.125×10^6 cells/mL were treated with the indicated concentration of drug, washed with 1×PBS and evaluated for viability by AnnexinV/DAPI staining and flow cytometry. Data analysis was per-formed with the FCS express version 3 (De Novo software, Los Angeles).
(§5) Compound were selected as a lead based on its low IC50, selectivity for inhibition of glucose transport through GLUT4, and inhibition of the KMS11-GFP cell line proliferation in contrast to the GLUT1 expressing isogenic line. Compounds were assessed in a high-throughput proliferation-based assay using an isogenic MM (KMS11) cell line pair overexpressing GLUT1 or GFP (as a control) (model of screen is depicted in FIG. 2A). […] Isogenic KMS11-GFP/GLUT1 overexpressing myeloma cell lines were treated with a dose range of the indicated test compound for 72 hours followed by evaluation of viable cell number by Cell Titre Glo assay

Assay [5] concerns KMS11-GFP cells. The experiment in a line: Proliferation of KMS11-GFP myeloma cells (Cell Titre Glo). To be noted: for EC50: inhibition of proliferation, 72 hours, Cell Titre Glo; for impact on proliferation in KMS11-GFP cells compared with KMS11-GLUT1 cells: isogenic cell line pair. The method, then: as §4, §5

From patent US20190321345A1, “GLUT4 Selective Inhibitors for Cancer Therapy” (Emory University, priority 2016, published 2019) come the findings set out here.

Bounds are passed on as bounds.

As a reminder, the IC50 is the point on the concentration scale where inhibition reaches its midpoint. For orientation: EC50 means the concentration giving half of the maximal effect.

For the molecule `Oc1cccc(CNCc2ccncc2)c1` [Compound 3, reference compound], the half-inhibitory concentration (IC50) in assay [1] was 18.9 µM; in assay [2], over 100 µM; in assay [3], over 100 µM.

On to `COc1ccc(C(=O)N(Cc2ccncc2)Cc2cccc(OCCc3ccc(C)cc3)c2)cc1` [Compound 7, 4-Methoxy-N-(3-(4-methylphenethoxy)benzyl)-N-(pyridin-4-ylmethyl)benzamide], for which the results for the 50% effective concentration (EC50) in assay [4] and in assay [5] were 12.7 µM and 9.1 µM, respectively.

Regarding `COc1ccc(C(=O)N(Cc2ccncc2)Cc2cccc(OCCc3cccc(C(F)(F)F)c3)c2)cc1` [Compound 8, 4-Methoxy-N-(pyridin-4-ylmethyl)-N-(3-(3-(trifluoromethyl)phenethoxy)benzyl)benzamide], in assay [4], the EC50 came to 15.1 µM. For the same molecule, in assay [5], the half-maximal effective concentration (EC50) was 8.9 µM and the “impact on proliferation in KMS11-GFP cells compared with KMS11-GLUT1 cells” value (“impact … compared with KMS11-GLUT1 cells” below) is on record as “greater impact on proliferation in KMS11-GFP cells”.

With `COc1ccc(C(=O)N(Cc2ccncc2)Cc2cccc(OCC3CCOCC3)c2)cc1` [Compound 9, 4-Methoxy-N-(pyridin-4-ylmethyl)-N-(3-((tetrahydro-2H-pyran-4-yl)methoxy)benzyl)benzamide], the EC50 in assay [4] was 25.8 µM. Moreover, in assay [5], the EC50 turned out to be 17.7 µM and the “impact … compared with KMS11-GLUT1 cells” value is “greater impact on proliferation in KMS11-GFP cells”.

Turning to `COc1ccc(C(=O)N(Cc2ccncc2)Cc2cccc(OCCc3ccccc3)c2)cc1` [Compound 10, 4-Methoxy-N-(3-phenethoxybenzyl)-N-(pyridin-4-ylmethyl)benzamide], the EC50 in assay [4] amounted to 21 µM; in assay [5], 16.9 µM.

Regarding `COc1ccc(C(=O)N(Cc2ccncc2)Cc2cccc(OCC3CCN(C(=O)OC(C)(C)C)CC3)c2)cc1` [Compound 11, Tert-butyl 4-((3-((4-methoxy-N-(pyridin-4-ylmethyl)benzamido)methyl)phenoxy)methyl)piperidine-1-carboxylate], the figures for the EC50 in assay [4] and in assay [5] were 4.9 µM and 5.1 µM, respectively.

For `COc1ccc(C(=O)N(Cc2ccncc2)Cc2cccc(OCC3CCCCC3)c2)cc1` [Compound 12, N-(3-(cyclohexylmethoxy)benzyl)-4-methoxy-N-(pyridin-4-ylmethyl)benzamide], the EC50 in assay [4] is 16 µM; in assay [5], 19.7 µM.

Take `COc1ccc(C(=O)N(Cc2ccncc2)Cc2cccc(OCCc3ccc(Br)cc3)c2)cc1` [Compound 13, N-(3-(4-bromophenethoxy)benzyl)-4-methoxy-N-(pyridin-4-ylmethyl)benzamide]: the EC50 in assay [4] came out at 6.5 µM; in assay [5] it was 8.4 µM.

As to `COc1ccc(C(=O)N(Cc2ccncc2)Cc2cccc(OCc3ccc([N+](=O)[O-])cc3)c2)cc1` [Compound 14, 4-Methoxy-N-(3-((4-nitrobenzyl)oxy)benzyl)-N-(pyridin-4-ylmethyl)benzamide], the EC50 in assay [4] was found to be 11.7 µM; in assay [5], 15.4 µM.

Take `COc1ccc(C(=O)N(Cc2ccncc2)Cc2cccc(OCc3ccc(C(F)(F)F)cc3)c2)cc1` [Compound 15]: the EC50 is 16.8 µM in assay [4] and 14.3 µM in assay [5].

With `COc1ccc(C(=O)N(Cc2ccncc2)Cc2cccc(OCc3ccc(F)cc3)c2)cc1` [Compound 16, N-(3-((4-fluorobenzyl)oxy)benzyl)-4-methoxy-N-(pyridin-4-ylmethyl)benzamide], the EC50 in assay [4] is 28.6 µM; in assay [5], 22.7 µM.

Consider `COc1ccc(C(=O)N(Cc2ccncc2)Cc2cccc(OCc3cccc(OC)c3)c2)cc1` [Compound 17, 4-Methoxy-N-(3-((3-methoxybenzyl)oxy)benzyl)-N-(pyridin-4-ylmethyl)benzamide], for which the IC50 in assay [1] is 10.8 µM; in assay [2], over 100 µM; in assay [3], over 100 µM. The results for the EC50 in assay [4] and in assay [5] were 28.5 µM and 16.9 µM, respectively. Moreover, in assay [5], the “impact … compared with KMS11-GLUT1 cells” value was “greater impact on proliferation in KMS11-GFP cells”.

Consider `COc1ccc(C(=O)N(Cc2ccncc2)Cc2cccc(OCC(=O)c3ccc(Cl)cc3)c2)cc1` [Compound 18, N-(3-(2-(4-chlorophenyl)-2-oxoethoxy)benzyl)-4-methoxy-N-(pyridin-4-ylmethyl)benzamide], for which the EC50 in assay [4] is 16.9 µM; in assay [5], 18.5 µM.

For `O=C(c1ccc(Cl)cc1)N(Cc1ccncc1)Cc1cccc(OCCc2ccc(F)cc2)c1` [Compound 19, 4-Chloro-N-(3-(4-fluorophenethoxy)benzyl)-N-(pyridin-4-ylmethyl)benzamide], the figures for the EC50 in assay [4] and in assay [5] were 15.6 µM and 13.1 µM, respectively.

Consider `COc1ccc(C(=O)N(Cc2ccncc2)Cc2cccc(OCC(=O)c3cccc(Br)c3)c2)cc1` [Compound 21, N-(3-(2-(3-bromophenyl)-2-oxoethoxy)benzyl)-4-methoxy-N-(pyridin-4-ylmethyl)benzamide], for which the concentration for a half-maximal effect (EC50) in assay [4] came to 21.4 µM; in assay [5], 18.7 µM.

For `COc1ccc(C(=O)N(Cc2ccncc2)Cc2cccc(OCc3cccc([N+](=O)[O-])c3)c2)cc1` [Compound 22, 4-Methoxy-N-(3-((3-nitrobenzyl)oxy)benzyl)-N-(pyridin-4-ylmethyl)benzamide], the half-maximal effective concentration (EC50) in assay [4] came to 20.6 µM; in assay [5], 19.6 µM.
